# Measured values as given in PMC4823954, “From fighting depression to conquering tumors: a novel tricyclic thiazepine compound as a tubulin polymerization inhibitor” (Cell Death & Disease, 2016).
# Values joined by “and” are separate entries in the source; they are usually repeats but may differ in a detail not shown here. Equal entries are not always repeated. Where two headings read alike, the source gives them in different places.
# Columns and labels:
# [1] = target: T1, ABL1(E255K)-phosphorylated (Homo sapiens, UniProt P00519, E255K); assay: KINOMEscan; type: binding; settings: read-out: % Ctrl
# T1 construct: purchased DiscoveRx KINOMEscan
# T1 sequence (P00519 whole entry E255K): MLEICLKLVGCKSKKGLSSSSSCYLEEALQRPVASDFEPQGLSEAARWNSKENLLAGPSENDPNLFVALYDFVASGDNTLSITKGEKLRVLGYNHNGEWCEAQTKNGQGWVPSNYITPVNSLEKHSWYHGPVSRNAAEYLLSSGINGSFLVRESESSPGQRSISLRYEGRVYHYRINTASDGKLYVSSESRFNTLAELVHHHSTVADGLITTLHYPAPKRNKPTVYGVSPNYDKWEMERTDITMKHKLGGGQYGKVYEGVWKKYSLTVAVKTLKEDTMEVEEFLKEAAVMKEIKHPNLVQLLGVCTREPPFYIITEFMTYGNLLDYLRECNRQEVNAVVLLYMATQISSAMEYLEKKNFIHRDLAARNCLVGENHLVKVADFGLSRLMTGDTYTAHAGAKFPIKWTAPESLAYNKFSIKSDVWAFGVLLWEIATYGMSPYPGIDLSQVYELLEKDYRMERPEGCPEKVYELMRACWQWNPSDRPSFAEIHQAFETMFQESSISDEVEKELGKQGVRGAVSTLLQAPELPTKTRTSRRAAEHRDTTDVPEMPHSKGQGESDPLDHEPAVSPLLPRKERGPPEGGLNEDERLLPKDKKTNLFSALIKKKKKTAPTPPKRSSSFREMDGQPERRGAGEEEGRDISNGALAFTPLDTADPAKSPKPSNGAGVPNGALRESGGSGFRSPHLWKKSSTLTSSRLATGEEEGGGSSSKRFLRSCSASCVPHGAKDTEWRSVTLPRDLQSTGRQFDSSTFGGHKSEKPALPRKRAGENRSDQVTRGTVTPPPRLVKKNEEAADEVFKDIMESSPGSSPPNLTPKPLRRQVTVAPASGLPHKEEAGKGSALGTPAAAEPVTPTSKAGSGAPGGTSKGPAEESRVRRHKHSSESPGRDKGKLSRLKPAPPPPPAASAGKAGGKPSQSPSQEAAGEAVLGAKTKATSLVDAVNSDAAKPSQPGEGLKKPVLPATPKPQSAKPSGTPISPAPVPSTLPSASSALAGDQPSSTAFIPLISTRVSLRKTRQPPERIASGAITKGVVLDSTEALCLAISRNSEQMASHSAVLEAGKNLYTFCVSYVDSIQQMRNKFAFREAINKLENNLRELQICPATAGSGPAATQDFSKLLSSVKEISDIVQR
# [2] = Caco-2 cell bi-directional transport assay; type: in vitro ADME; settings: human; for Papp: Caco-2
# From the text: (§1) As in vivo investigations are generally time consuming and expensive, it is advantageous to eliminate those compounds that are not suitable for animal experiments. One of the necessary steps is to screen the initial hits using assays testing their possible behaviors in vivo. To evaluate the drug-like properties of TBPT, a panel of in vitro assays was preformed (Table 1). The parallel artificial membrane permeability assay (PAMPA) was used to evaluate the cell permeability of the compounds. Compounds with a Pe >[…] are classified as highly permeable. […] The Caco-2 assay was used to predict the oral absorption values of the compounds in vivo. Compounds with a Caco-2 efflux ratio >2 may be subject to active efflux and should not be developed further. […] The half-life (T1/2) in human liver microsomes is used to predict the metabolism properties of compounds in vivo. […] A very long T1/2 (>24 h) increases the risk of cumulative toxicity and is not desirable. […] T1/2 in plasma indicates the stability of the drug in human blood; the high T1/2 values of these compounds indicated better stability in vivo. Plasma protein binding influences the distribution of drugs into body tissues, and compounds with high plasma protein binding (>99%) are limited in terms of the amount of free compound that are available to act on the targeted tissue.
# (§2) The PAMPA and Caco-2 cell bi-directional transport assay of the derivatives were conducted as described in our previous report.[65], [66] The human liver microsome, plasma stability and plasma protein-binding assays were conducted following modified protocols reported by Cyprotex (Macclesfield, UK).[67], [68], [69], [70]
# Caco-2 = Caco-2 cell bi-directional transport assay; type: in vitro ADME; settings: Caco-2
# From the text: as §1, §2
# [3] = target: T2, EGFR(L747-E749del, A750P) (Homo sapiens, UniProt P00533, A750P/DEL747-749); assay: KINOMEscan; type: binding; settings: read-out: % Ctrl
# T2 construct: purchased DiscoveRx KINOMEscan
# T2 sequence (P00533 with tags, fused parts or gaps DEL747-749/A750P limits assumed): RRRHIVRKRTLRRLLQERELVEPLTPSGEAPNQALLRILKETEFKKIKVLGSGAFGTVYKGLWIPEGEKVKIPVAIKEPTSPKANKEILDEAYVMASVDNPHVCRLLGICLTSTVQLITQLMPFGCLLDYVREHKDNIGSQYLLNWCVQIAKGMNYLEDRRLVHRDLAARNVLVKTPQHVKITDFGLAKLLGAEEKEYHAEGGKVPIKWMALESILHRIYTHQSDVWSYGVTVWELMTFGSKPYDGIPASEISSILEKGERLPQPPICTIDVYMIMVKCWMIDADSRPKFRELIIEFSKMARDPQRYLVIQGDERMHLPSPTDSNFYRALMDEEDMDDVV
# FLT3(K663Q) = target: T3, FLT3(K663Q) (Homo sapiens, UniProt P36888, K663Q); assay: KINOMEscan; type: binding; settings: read-out: % Ctrl
# T3 construct: purchased DiscoveRx KINOMEscan
# [4] = human liver microsome stability; type: in vitro ADME; settings: liver microsomes, read-out: T1/2 in human liver microsome (converted)
# From the text: as §1, with “tissue. […]” for “tissue.”
# tubulin = target: T4, tubulin (Sus scrofa, UniProt P02550+P02554); assay: Tubulin polymerization assay (cell-free); type: biochemical; settings: fluorescence, 50 min, 37 °C, read-out: IC50 of tubulin polymerization (microtubule formation)
# T4 construct: purchased Cytoskeleton, Denver, CO, USA
# Description: A fluorescence-based tubulin polymerization assay kit was used to monitor the polymerization process according to the manufacturer's instructions (Cytoskeleton, Denver, CO, USA). […] Tubulin solution (50 μl) was dispensed rapidly into each well.
# [5] = target: T5, ABL1(F317I)-nonphosphorylated (Homo sapiens, UniProt P00519, F317I); assay: KINOMEscan; type: binding; settings: read-out: % Ctrl
# T5 construct: purchased DiscoveRx KINOMEscan
# T5 sequence (P00519 whole entry F317I): as the sequence (P00519 whole entry E255K) above, with K255E, F317I counted along it
# EGFR(L861Q) = target: T6, EGFR(L861Q) (Homo sapiens, UniProt P00533, L861Q); assay: KINOMEscan; type: binding; settings: read-out: % Ctrl
# T6 construct: purchased DiscoveRx KINOMEscan
# T6 sequence (P00533 25-1210 L861Q): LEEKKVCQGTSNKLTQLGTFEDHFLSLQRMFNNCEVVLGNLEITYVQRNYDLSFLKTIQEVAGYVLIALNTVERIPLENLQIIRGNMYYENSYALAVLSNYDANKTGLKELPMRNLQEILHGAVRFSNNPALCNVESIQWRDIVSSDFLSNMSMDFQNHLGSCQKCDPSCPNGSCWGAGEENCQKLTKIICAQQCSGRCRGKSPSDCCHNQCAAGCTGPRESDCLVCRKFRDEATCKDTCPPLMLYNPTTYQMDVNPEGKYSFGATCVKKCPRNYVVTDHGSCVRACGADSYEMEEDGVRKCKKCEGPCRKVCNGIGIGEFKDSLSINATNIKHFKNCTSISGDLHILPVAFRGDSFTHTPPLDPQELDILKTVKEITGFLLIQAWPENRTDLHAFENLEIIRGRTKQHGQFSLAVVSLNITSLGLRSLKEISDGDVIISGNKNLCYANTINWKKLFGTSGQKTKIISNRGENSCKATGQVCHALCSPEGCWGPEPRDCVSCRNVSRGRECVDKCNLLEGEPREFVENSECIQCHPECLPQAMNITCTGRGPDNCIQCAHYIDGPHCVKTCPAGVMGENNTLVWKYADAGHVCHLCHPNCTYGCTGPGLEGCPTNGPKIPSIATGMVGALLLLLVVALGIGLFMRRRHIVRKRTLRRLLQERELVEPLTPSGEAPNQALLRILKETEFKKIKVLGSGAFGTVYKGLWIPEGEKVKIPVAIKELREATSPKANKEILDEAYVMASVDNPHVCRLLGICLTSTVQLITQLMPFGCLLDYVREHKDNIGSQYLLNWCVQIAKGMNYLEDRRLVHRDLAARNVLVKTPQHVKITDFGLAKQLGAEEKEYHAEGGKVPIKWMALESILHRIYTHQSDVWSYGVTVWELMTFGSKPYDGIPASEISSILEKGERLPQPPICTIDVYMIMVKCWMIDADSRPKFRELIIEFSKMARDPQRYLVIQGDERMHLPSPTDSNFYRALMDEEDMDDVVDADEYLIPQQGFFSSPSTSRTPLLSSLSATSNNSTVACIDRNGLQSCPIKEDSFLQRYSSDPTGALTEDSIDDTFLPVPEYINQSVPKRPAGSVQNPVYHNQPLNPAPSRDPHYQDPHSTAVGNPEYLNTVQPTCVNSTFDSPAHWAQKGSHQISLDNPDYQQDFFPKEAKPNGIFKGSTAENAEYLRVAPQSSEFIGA
# caspases 8, 9 and 3/7 = assay: Caspases activity assay in H460 cells; type: cell-based, human; settings: H460, 2 μM, 6, 12 and 24 h
# Description: The activities of caspases 8, 9, and 3/7 in H460TaxR and H460 cells were examined via a fluorescence-based assay using Caspase-Glo 8, Caspase-Glo 9 Assay kits and Apo-ONE Homogeneous Caspase-3/7 Assay Kit (Promega, Madison, WI, USA). Cells (1 × 10^6 cells in 10 ml medium) were seeded in 10-cm dishes. After 24 h, the cells were treated with TBPT (2 μM) or DMSO for 6, 12 and 24 h. Then, the cells were washed in PBS and collected. Cell lysates were prepared conventionally in RIPA lysis buffer. Protein concentrations were determined using the BCA protein assay. Equal amounts (10 μg) of total protein of samples were added to 96-well culture plates containing 100 μl caspases 8, 9 and 3/7 activity working solution. After the samples were incubated for 1 h at RT, the fluorescence of each well was determined at 499 nm with an emission wavelength of 521 nm using a multimode plate reader (Victor X2, Perkin Elmer, Boston, MA, USA). The fluorescence intensities are proportional to the activities of caspases 8, 9 and 3/7.
# H460TaxR xenograft = assay: NSCLC xenograft tumor growth inhibition; type: in vivo; settings: H460TaxR xenografted mice; TBPT 60 mg/kg i.v., five injections every other day
# Description: (§3) (a) The tumor volume was measured every other day. […] (b) Blood biochemical and hematological analyses.
# H460 xenograft = assay: NSCLC xenograft tumor growth inhibition; type: in vivo; settings: H460 xenografted mice; TBPT 60 mg/kg i.v., five injections every other day
# Description: as §3
# MET(M1250T) = target: T7, MET(M1250T) (Homo sapiens, UniProt P08581, M1250T); assay: KINOMEscan; type: binding; settings: read-out: % Ctrl
# T7 construct: purchased DiscoveRx KINOMEscan
# T7 sequence (P08581 25-1390 M1250T): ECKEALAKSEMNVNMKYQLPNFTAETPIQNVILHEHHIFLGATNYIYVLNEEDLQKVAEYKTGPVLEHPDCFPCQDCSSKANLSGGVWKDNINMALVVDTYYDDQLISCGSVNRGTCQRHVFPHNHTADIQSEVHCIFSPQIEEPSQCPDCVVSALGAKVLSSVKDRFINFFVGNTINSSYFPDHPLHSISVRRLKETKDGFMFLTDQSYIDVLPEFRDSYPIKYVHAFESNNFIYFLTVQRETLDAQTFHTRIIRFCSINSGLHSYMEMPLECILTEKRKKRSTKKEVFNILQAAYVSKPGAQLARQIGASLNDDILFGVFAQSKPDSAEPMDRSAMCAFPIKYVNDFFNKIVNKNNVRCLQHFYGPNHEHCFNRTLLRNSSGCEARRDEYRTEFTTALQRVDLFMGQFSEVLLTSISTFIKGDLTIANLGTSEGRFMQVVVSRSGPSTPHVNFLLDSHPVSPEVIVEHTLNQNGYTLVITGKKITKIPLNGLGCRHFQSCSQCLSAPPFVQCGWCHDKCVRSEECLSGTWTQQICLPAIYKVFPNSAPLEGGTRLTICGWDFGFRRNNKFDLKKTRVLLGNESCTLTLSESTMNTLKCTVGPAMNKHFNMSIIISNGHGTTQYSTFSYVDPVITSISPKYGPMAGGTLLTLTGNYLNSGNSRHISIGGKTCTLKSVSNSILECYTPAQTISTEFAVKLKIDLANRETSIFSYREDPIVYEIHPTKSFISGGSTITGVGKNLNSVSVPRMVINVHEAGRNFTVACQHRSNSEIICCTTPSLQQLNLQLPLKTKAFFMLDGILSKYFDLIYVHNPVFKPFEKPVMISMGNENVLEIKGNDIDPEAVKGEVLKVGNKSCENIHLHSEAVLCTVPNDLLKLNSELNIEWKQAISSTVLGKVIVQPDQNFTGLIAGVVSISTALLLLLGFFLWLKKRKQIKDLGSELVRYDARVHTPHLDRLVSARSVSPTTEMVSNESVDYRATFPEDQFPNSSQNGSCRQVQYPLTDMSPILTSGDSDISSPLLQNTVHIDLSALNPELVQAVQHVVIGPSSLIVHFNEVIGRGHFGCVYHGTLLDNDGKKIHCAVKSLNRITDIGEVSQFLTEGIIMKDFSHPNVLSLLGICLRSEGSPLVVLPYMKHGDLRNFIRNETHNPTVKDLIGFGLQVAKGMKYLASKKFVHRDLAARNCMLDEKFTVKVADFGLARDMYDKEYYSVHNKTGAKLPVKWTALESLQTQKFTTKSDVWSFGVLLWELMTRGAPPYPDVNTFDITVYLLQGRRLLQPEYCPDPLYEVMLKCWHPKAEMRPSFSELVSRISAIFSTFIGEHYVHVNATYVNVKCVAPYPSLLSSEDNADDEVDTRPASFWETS
# FLT3(ITD) = assay: KINOMEscan; type: binding, human
# Description: The binding assay for 442 non-mutant kinases was performed using KINOMEscan (DiscoveRx Corporation, Fremont, CA, USA) as reported previously.[58], [59] TBPT was screened at concentrations of 5 and 10 μM to identify the affected kinases. KINOMEscan is based on a competition reaction that quantitatively measures the ability of a test compound to compete with an active site-directed ligand for binding to the kinase active site. […] After the assay plates were incubated with shaking for 1 h, the liganded beads were washed with washing buffer (1 × PBS and 0.05% Tween 20). Then, the beads were re-suspended in elution buffer (1 × PBS, 0.05% Tween 20, and 0.5 μM ligand) and incubated with shaking for 30 min. The kinase concentration in the eluates was measured via qPCR. The results are represented as ‘%Ctrl', which was calculated using the following formula: (test compound signal–positive control signal)/(DMSO signal–positive control signal) × 100%. A lower % Ctrl indicates stronger binding to the kinase active site.
# KIT(L576P) = target: T8, KIT(L576P) (Homo sapiens, UniProt P10721, L576P); assay: KINOMEscan; type: binding; settings: read-out: % Ctrl
# T8 construct: purchased DiscoveRx KINOMEscan
# T8 sequence (P10721 26-976 L576P): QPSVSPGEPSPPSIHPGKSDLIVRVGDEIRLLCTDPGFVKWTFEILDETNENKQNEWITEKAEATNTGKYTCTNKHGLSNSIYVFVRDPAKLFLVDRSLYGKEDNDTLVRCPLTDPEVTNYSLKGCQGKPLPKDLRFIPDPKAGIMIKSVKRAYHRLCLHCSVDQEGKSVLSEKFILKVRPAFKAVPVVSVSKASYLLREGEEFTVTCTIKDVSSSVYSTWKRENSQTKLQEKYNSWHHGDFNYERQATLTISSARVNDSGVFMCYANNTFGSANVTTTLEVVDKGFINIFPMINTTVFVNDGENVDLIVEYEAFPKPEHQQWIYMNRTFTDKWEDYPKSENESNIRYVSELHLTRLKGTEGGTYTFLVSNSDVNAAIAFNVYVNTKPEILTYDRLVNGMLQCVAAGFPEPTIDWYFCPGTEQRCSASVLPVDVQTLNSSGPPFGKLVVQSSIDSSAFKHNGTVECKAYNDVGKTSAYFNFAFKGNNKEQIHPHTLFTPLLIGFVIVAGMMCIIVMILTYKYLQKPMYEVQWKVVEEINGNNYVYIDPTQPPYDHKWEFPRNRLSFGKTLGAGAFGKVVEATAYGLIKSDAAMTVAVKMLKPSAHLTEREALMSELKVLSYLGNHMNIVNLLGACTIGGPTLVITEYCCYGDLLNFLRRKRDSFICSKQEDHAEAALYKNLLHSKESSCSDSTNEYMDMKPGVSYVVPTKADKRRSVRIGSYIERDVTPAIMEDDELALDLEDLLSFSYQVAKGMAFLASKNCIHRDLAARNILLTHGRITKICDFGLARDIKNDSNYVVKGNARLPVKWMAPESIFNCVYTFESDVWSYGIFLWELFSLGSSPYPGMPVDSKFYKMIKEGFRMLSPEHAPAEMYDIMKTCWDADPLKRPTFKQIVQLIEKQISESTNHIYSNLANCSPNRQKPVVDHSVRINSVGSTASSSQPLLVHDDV
# plasma stability = type: in vitro ADME; settings: human, read-out: T1/2 in human plasma
# From the text: as §1, with “tissue. […]” for “tissue.”
compound,measurement,setting,value
"Cc1ccc(C2=Nc3cccnc3S(=O)(=O)c3ccccc32)cc1 [TBPT, 6-(p-tolyl)benzo[f] pyrido[2,3-b][1,4] thiazepine 11,11-dioxide]",remaining binding at 5 µM,[1]; 5 μM,60%
same,remaining binding at 10 µM,[1]; 10 μM,89%
same,efflux ratio,"[2]; Caco-2, Caco-2, read-out: Efflux ratio (B2A/A2B)",0.4 to 0.8
same,Papp,[2]; read-out: Caco-2 Papp A/B,34.5 ± 2.06 ×10⁻⁶ cm/s
same,Papp,[2]; read-out: Caco-2 Papp B/A,20.6 ± 7 ×10⁻⁶ cm/s
same,Efflux ratio (B2A/A2B),Caco-2,0.59±0.17
same,remaining binding at 5 µM,[3]; 5 μM,91%
same,remaining binding at 10 µM,[3]; 10 μM,91%
same,remaining binding at 5 µM,FLT3(K663Q); 5 μM,84%
same,remaining binding at 10 µM,FLT3(K663Q); 10 μM,94%
same,half-life,[4],5.18 ± 0.69 h
same,IC50,tubulin,12.6 µM
same,remaining binding at 5 µM,[5]; 5 μM,89%
same,remaining binding at 10 µM,[5]; 10 μM,100%
same,remaining binding at 5 µM,EGFR(L861Q); 5 μM,100%
same,remaining binding at 10 µM,EGFR(L861Q); 10 μM,100%
same,"activities of caspases 8, 9 and 3/7","caspases 8, 9 and 3/7","activated caspases 8, 9 and 3/7 in a time-dependent manner"
same,"tumor growth inhibition, TGI",H460TaxR xenograft,66.7% and > 60%
same,"tumor growth inhibition, TGI",H460 xenograft,62.9% and > 60%
same,remaining binding at 5 µM,MET(M1250T); 5 μM,100%
same,remaining binding at 10 µM,MET(M1250T); 10 μM,77%
same,% Ctrl,FLT3(ITD); 5 μM,95%
same,% Ctrl,FLT3(ITD); 10 μM,100%
same,remaining binding at 5 µM,KIT(L576P); 5 μM,78%
same,remaining binding at 10 µM,KIT(L576P); 10 μM,100%
same,half-life,plasma stability,> 50 h
